In patent US12329799B2, “Peptidyl inhibitors of calcineurin-NFAT interaction” (Ohio State Innovation Foundation, priority 2018, dated 2025):
Positions of bridges follow the written chain, without caps; N, C: chain ends. Non-standard residues stand in square brackets, D forms with d. Residues, ends and D or L forms follow the SMILES beside them. Chains are numbered I, II in the order given. *: point of attachment. 2Nal = N[C@@H](Cc1ccc2ccccc2c1)C(=O)O; Val(3-OH) = CC(C)(O)[C@H](N)C(=O)O; Tle = CC(C)(C)[C@H](N)C(=O)O; X1 = O=C(c1ccnc(Cl)c1Cl)*; AEEA = NCCOCCOCC(=O)O

Tests used:
[1] = Stability in simulated intestinal fluid (SIF); assay type: in vitro ADME
Method: (§1) Stability of CNI103 in simulated gastric fluid (SGF) was evaluated by diluting CNI103 (final 5 μM) in FaSSGF buffer (pH 1.2), which was prepared from FaSSGF powder (cat no. FFF01, BioRelavant). Similarly, stability of CNI103 in simulated intestinal fluid (SIF) was evaluated by diluting CNI103 (final 5 μM) in FaSSIF buffer (pH 6.5), which was prepared from FaSSIF powder (cat no. FFF-1017-B, BioRelavant) supplemented with Lecithin and maleic acid. The solutions were incubated at 37° C. for 5, 15, 30, 60, or 120 min, and the concentration of remaining CNI103 was determined by LC/MS/MS analysis as described above.

[2] = Stability in simulated gastric fluid (SGF); assay type: in vitro ADME
Method: as §1

in vitro = in vitro ADME; design: dose or concentration left out as unconfirmed; conditions: mouse
Method: Plasma binding was assessed using mouse plasma obtained from in-life studies. CNI103 was diluted to […] in pre-warmed mouse plasma. The solution was added to the left chamber of a commercial plate based RED (rapid equilibrium dialysis) device. Isotonic sodium phosphate buffer (100 mM sodium phosphate, 100 mM sodium chloride, pH 7.4) was added to the outer chamber of the RED device and the plate was incubated at 37° C. for five hours. Aliquots of the buffer and the plasma were withdrawn before and after the incubation and the concentrations of free and bound test compound were determined by LC/MS/MS analysis. To test for plasma stability, the dosing solution was also incubated at 37° C. for 5 hours and the concentration of CNI103 was determined by LC/MS/MS analysis as described above.
The calculation of percentage binding is calculated using the following equations and the results are presented in Table 13: Binding %=(Cpe−Cb)/Cpe×100 • Cpe=Conc. of test compound in plasma at equilibrium • Cb=Conc. of test compound in buffer at equilibrium % Stability of test compound=(Conc. of stability sample/Conc. of time zero sample)×100 % Recovery=(Cpe+Cb)/Conc. of stability sample×100

[3] = Liver microsome stability assay; assay type: in vitro ADME; conditions: mouse liver microsome
Method: Liver microsome stability assay. Liver microsome stability was assessed using mouse microsome (cat. M1000, XenoTech). Ten mM stock solution of CNI103 was similarly prepared in DMSO. One hundred micromolar of CNI103 solution was prepared by diluting the DMSO stock in phosphate buffer (50 mM potassium phosphate, pH 7.4). To assay the stability, liver microsomes (final concentration 0.5 mg/mL) were mixed with testing samples gently and incubated at 37° C. for 5 min. At varying time points post reaction (0, 5, 15, 30, and 60 min), 25 microliter aliquots were withdrawn and each aliquot (25 microliter) was quenched with 300 μL of an internal standard solution (25 ng/mL terfenadine in 1:1 v/v methanol/acetonitrile) followed by vigorous vortexing and centrifugation. To assess metabolism by P450 enzymes, the microsome degradation reaction was supplemented with NADPH (final 1 mM) followed by gentle mixing. 100 μL aliquots of the reaction mixture were withdrawn at 0, 30, or 60 min, diluted two fold with distilled water, and subjected to LC-MS/MS analysis on a reversed-phase HPLC coupled with Sciex 4500 Q-trap based quantification.

[4] = Caco-2 permeability assay; assay type: in vitro ADME; conditions: human, Caco-2, pH 7.4
Method: (§2) Caco-2 permeability assay. To assay the permeability of test compounds by Caco-2 cell model, Caco-2 cells were cultured to confluency before being trypsinized and seeded onto filter transwell inserts at a density of 30,000 cells/well in DMEM medium. Cells were cultured in a humidified atmosphere with 5% CO2 at 37° C. After overnight attachment, cell medium was replaced with fresh medium at both apical and basolateral sides every other day. The cell monolayers are ready for the assay 20 days post seeding. […] The dosing solution at 10 μM was obtained by diluting 10 mM stock solution in HBSS medium (pH 7.4, 25 mM HEPES) freshly before the assay. Terfenadine (25 ng/mL) and Tolbutamide (50 ng/mL) were added into dosing solution as internal standards. […] The culture medium from either the basolateral side (plate B) or apical side (plate A) were aspirated and then rinsed with HBSS medium once. Afterwards, the dosing medium was added to either basolateral or apical side. Following the incubation, 100 microliter samples from both sides were harvested at time 0 and time 90 min. Samples were quenched with acetonitrile/methanol (1:1 v/v), centrifuged, and analyzed on a Shimadzu reversed-phase HPLC and Sciex API4500 Q trap instrument.
(§3) Permeability parameters were calculated using the following equations and shown in Table 10: Papp=(Conc.receiver,90 min*Volumereceiver)/(Time*Membrane Area*Conc.donor,0 min) Efflux Ratio=Papp[B to A]/Papp[A to B]

Caco-2 cell monolayers = experiment: Caco-2 permeability assay; assay type: in vitro ADME
Method: as §2, §3

[5] = Stability in mouse hepatocytes; assay type: in vitro ADME
Method: (§4) Stability of CNI103 in mouse hepatocytes. Hepatocyte stability was assessed by using mouse hepatocyte (cat. M005052, BioIVT). Mouse hepatocytes were revived following manufacturer's procedure with Cryopreserved Hepatocyte Recovery Medium and used for the assay when cell viability was greater than 70%. Testing compound (at 2 μM) was mixed with mouse hepatocytes at 37° C. in a humidified incubator with 5% CO2. Final hepatocyte cell density was 2 million per mL. […] of the resulting supernatant was diluted two fold with distilled water and analyzed by reversed-phase HPLC coupled with Sciex 4500 Q-trap based quantification.

mouse hepatocytes = experiment: Stability in mouse hepatocytes; assay type: in vitro ADME; conditions: 2 μM
Method: as §4

HCT116 cell spheroids = experiment: Cellular entry and intracellular stability by MALDI-TOF MS imaging; assay type: cell-based; conditions: 5 μM, 24 h of incubation
Method: Intracellular Stability. HCT116 cell spheroids in RPMI-1640 medium supplemented with 10% FBS and 1% penicillin/streptomycin were treated with 5 μM CNI103 for 4 or 24 h. Spheroids were washed three times with warm DPBS, quickly frozen, embedded in a solid support and cryo-sectioned. Prior to analysis, sinapinic acid was sublimed onto individual slides, which were subsequently imaged using a Bruker ultrafleXtreme MALDI-TOF-TOF mass spectrometer. The spectra were analyzed for intact CNI103 as well as proteolytic degradation fragments of interest. The MS signal intensity data were used to generate Heatmaps, scaled relative to the most intense signal, for each time point and fragment.

% remaining ([1]; SIF (FaSSIF, pH 6.5), 37° C., 0 min, n = 2): 100.00%
remaining at 5 min, 5 μM ([1]; simulated intestinal fluid (FaSSIF), pH 6.5, SIF, 5 min): 92.3%
remaining at 0.25 h, 5 μM ([1]; simulated intestinal fluid (FaSSIF), pH 6.5, SIF, 15 min): 109%
remaining at 0.5 h, 5 μM ([1]; simulated intestinal fluid (FaSSIF), pH 6.5, SIF, 30 min): 109%
remaining at 1 h, 5 μM ([1]; simulated intestinal fluid (FaSSIF), pH 6.5, SIF, 60 min): 95.9%
remaining at 2 h, 5 μM ([1]; simulated intestinal fluid (FaSSIF), pH 6.5, SIF, 120 min): 75.6%
% remaining ([2]; SGF (FaSSGF, pH 1.2), 37° C., 0 min, n = 2): 100.00%
remaining at 5 min, 5 μM ([2]; simulated gastric fluid (FaSSGF), pH 1.2, SGF, 5 min): 93.7%
remaining at 0.25 h, 5 μM ([2]; simulated gastric fluid (FaSSGF), pH 1.2, SGF, 15 min): 87.4%
remaining at 0.5 h, 5 μM ([2]; simulated gastric fluid (FaSSGF), pH 1.2, SGF, 30 min): 88.3%
remaining at 1 h, 5 μM ([2]; simulated gastric fluid (FaSSGF), pH 1.2, SGF, 60 min): 106%
remaining at 2 h, 5 μM ([2]; simulated gastric fluid (FaSSGF), pH 1.2, SGF, 120 min): 103%
recovery at 5 hours (in vitro; pH 7.4): 130%
remaining at 5 h (in vitro; plasma): 110%
fraction unbound at 5 h (in vitro; plasma, pH 7.4): 0.024
remaining at 0.25 h ([3]; liver microsomes, pH 7.4, 15 min, read-out: % remaining (+NADPH)): 95.8%
remaining at 0.5 h ([3]; liver microsomes, pH 7.4, 30 min, read-out: % remaining (+NADPH)): 76%
remaining at 1 h ([3]; liver microsomes, pH 7.4, 60 min, read-out: % remaining (+NADPH)): 75.1%
% remaining (+NADPH) ([3]; 0 min): 100.0%
% remaining (−NADPH) ([3]; 0 min): 100.0%
% remaining (+NADPH) ([3]; 5 min): 131.1%
% remaining (−NADPH) ([3]; 30 min): 113.6%
% remaining (−NADPH) ([3]; 60 min): 70.8%
Papp A→B at 90 min, 10 μM ([4]; N = 2, 10 μM, 90 min): 7.5 ×10⁻⁶ cm/s
Papp B→A at 90 min, 10 μM ([4]; N = 2, 10 μM, 90 min): 2.1 ×10⁻⁶ cm/s
efflux ratio at 90 min, 10 μM ([4]; Papp[B to A]/Papp[A to B]): 0.3
Pgp Substrate (Caco-2 cell monolayers): No
remaining at 0.25 h, 2 μM ([5]; 15 min): 103%
remaining at 0.5 h, 2 μM ([5]; 30 min): 101%
remaining at 1 h, 2 μM ([5]; 60 min): 120%
% remaining (mouse hepatocytes; 0 min): 100.00%
% remaining (mouse hepatocytes; 90 min): 141.77%
% remaining (mouse hepatocytes; 120 min): 124.89%
SMILES: CC[C@H](C)[C@H](NC(=O)[C@@H](NC(=O)c1ccnc(Cl)c1Cl)C(C)(C)C)C(=O)N[C@H](C(=O)N[C@H](C(=O)N[C@H](C(=O)N[C@@H](CCC(N)=O)C(=O)N[C@@H](Cc1c[nH]cn1)C(=O)N[C@H](CC(C)C)C(=O)N[C@@H](CO)C(=O)NCCOCCOCC(=O)N[C@@H](CCCCNC(=O)CC[C@@H]1NC(=O)[C@@H](CCCNC(=N)N)NC(=O)[C@H](CCCNC(=N)N)NC(=O)[C@@H](CCCNC(=N)N)NC(=O)[C@H](CCCNC(=N)N)NC(=O)[C@H](Cc2ccc3ccccc3c2)NC(=O)[C@@H](Cc2ccccc2)NC1=O)C(N)=O)[C@@H](C)O)[C@@H](C)CC)C(C)(C)O [CNI103, (DCNA)-Tle-Ile-Bhv-Ile-Thr-Gln-His-(D-Leu)-Ser-miniPEG-Lys{[cyclo-(Gln-(D-Arg)-Arg-(D-Arg)-Arg-(2-Nal)-(D-Phe)]}-NH2] (I: X1-[Tle]I[Val(3-OH)]ITQH[dL]S[AEEA]K-NH2 / II: cyclo([2Nal]R[dR]R[dR]E[dF]); amide I:11-II:6 (inferred); ring closure inferred)
intracellular degradation (HCT116 cell spheroids): No significant degradation product signal
